In PubChem BioAssay (NCI):
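Tested at 5 concentrations; 48 h exposure; 96-well plates; endpoints linearly interpolated, else capped at highest concentration. Definition used: TGI = concentration required for complete inhibition of growth.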

Tests used:
Test in all cases: inhibition of tumour cell growth, NCI panel, 48 h
[1] = system: MDA-MB-231 breast
[2] = system: HCT-15 colon
[3] = system: KM12 colon
[4] = system: SF-539 CNS
[5] = system: BT-549 breast
[6] = system: SN12C renal
[7] = system: OVCAR-5 ovarian
[8] = system: CAKI-1 renal
[9] = system: T-47D breast
[10] = system: MALME-3M melanoma
[11] = system: SK-OV-3 ovarian
[12] = system: HOP-92 NSCLC
[13] = system: OVCAR-4 ovarian
[14] = system: EKVX NSCLC
[15] = system: SF-268 CNS
[16] = system: HS 578T breast
[17] = system: UACC-62 melanoma
[18] = system: K-562 leukemia
[19] = system: SW-620 colon
[20] = system: MDA-N
[21] = system: MOLT-4 leukemia
[22] = system: NCI/ADR-RES ovarian
[23] = system: MDA-MB-435
[24] = system: SNB-19 CNS
[25] = system: OVCAR-3 ovarian
[26] = system: UO-31 renal
[27] = system: RPMI-8226 leukemia
[28] = system: SR leukemia
[29] = system: SK-MEL-2 melanoma
[30] = system: IGROV1 ovarian
[31] = system: SNB-75 CNS
[32] = system: HCC-2998 colon
[33] = system: HT29 colon
[34] = system: A549 NSCLC
[35] = system: NCI-H226 lung
[36] = system: SK-MEL-5 melanoma
[37] = system: HOP-62 NSCLC
[38] = system: MCF7 breast
[39] = system: TK-10 renal
[40] = system: NCI-H23 lung
[41] = system: NCI-H522 lung
[42] = system: CCRF-CEM leukemia
[43] = system: ACHN renal
[44] = system: OVCAR-8 ovarian
[45] = system: COLO 205 colon
[46] = system: NCI-H460 lung
[47] = system: M14 melanoma
[48] = system: UACC-257 melanoma
[49] = system: 786-0 renal
[50] = system: RXF 393 renal
[51] = system: SF-295 CNS
[52] = system: LOX IMVI melanoma
[53] = system: PC-3 prostate
[54] = system: A498 renal
[55] = system: U251 CNS
[56] = system: HCT-116 colon
[57] = system: SK-MEL-28 melanoma
[58] = system: HL-60(TB) leukemia
[59] = system: DU-145 prostate

Measured: TGI

O=C1C2CCCCC2C(=O)N1n1c(-c2ccccc2)n[nH]c1=O (centres undefined)
not listed: [57] | [58] | [59]
> 100 µM: all other assays above

O=C(O)CC(NC(=O)/C(=C/c1ccccc1)NC(=O)c1ccccc1)C(=O)O (centres undefined)
not listed: [28]
> 100 µM: all other assays above
